Laboratory results from ChEMBL document CHEMBL1201862, “PubChem BioAssay data set” (2004).
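In this assay, cells in 96-well plates receive the compound at five concentrations for 48 hours. Endpoints are linearly interpolated between the surrounding concentrations. GI50: concentration for 50% inhibition of growth.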 Active and inactive are the calls of the source. Rule as the data show it: active = GI50 up to about 1.1 µM and inactive = higher.

Key:
Test in all cases: NCI-60 cell line screen, 48 h
K562 = tested on: K562
RXF 393 = tested on: RXF 393
OVCAR-8 = tested on: OVCAR-8
SK-MEL-5 = tested on: SK-MEL-5
SF-295 = tested on: SF-295
U-251 = tested on: U-251
786-0 = tested on: 786-0
SR = tested on: SR
A549 = tested on: A549
SK-MEL-28 = tested on: SK-MEL-28
TK-10 = tested on: TK-10
NCI-H522 = tested on: NCI-H522
SN12C = tested on: SN12C
PC-3 = tested on: PC-3
MDA-MB-435 = tested on: MDA-MB-435
M14 = tested on: M14
UACC-257 = tested on: UACC-257
DU-145 = tested on: DU-145
OVCAR-3 = tested on: OVCAR-3
HOP-62 = tested on: HOP-62
SF-539 = tested on: SF-539
MCF7 = tested on: MCF7
OVCAR-5 = tested on: OVCAR-5
SNB-19 = tested on: SNB-19
UACC-62 = tested on: UACC-62
SF-268 = tested on: SF-268
SK-MEL-2 = tested on: SK-MEL-2
HT-29 = tested on: HT-29
IGROV-1 = tested on: IGROV-1
HCT-116 = tested on: HCT-116
A498 = tested on: A498
MDA-MB-231 = tested on: MDA-MB-231
SW-620 = tested on: SW-620
LOX IMVI = tested on: LOX IMVI
EKVX = tested on: EKVX
NCI-H23 = tested on: NCI-H23
HOP-92 = tested on: HOP-92
NCI-H226 = tested on: NCI-H226
MDA-N = tested on: MDA-N
UO-31 = tested on: UO-31
CAKI-1 = tested on: CAKI-1
T47D = tested on: T47D
COLO 205 = tested on: COLO 205
NCI/ADR-RES = tested on: NCI/ADR-RES
SNB-75 = tested on: SNB-75
OVCAR-4 = tested on: OVCAR-4
KM12 = tested on: KM12
Hs-578T = tested on: Hs-578T
HL-60 = tested on: HL-60
MOLT-4 = tested on: MOLT-4
NCI-H460 = tested on: NCI-H460
ACHN = tested on: ACHN
SK-OV-3 = tested on: SK-OV-3
BT-549 = tested on: BT-549
HCT-15 = tested on: HCT-15
Malme-3M = tested on: Malme-3M
CCRF-CEM = tested on: CCRF-CEM
RPMI-8226 = tested on: RPMI-8226

SMILES: NC(=O)C(c1ccccc1)N1OC2C(=O)N(c3cccc4ccccc34)C(=O)C2C1c1c2ccccc2c(Cl)c2ccccc12 (stereo unspecified)
- GI50 (K562): 8150 nM (inactive)
- GI50 (RXF 393): 6810 nM (inactive)
- GI50 (OVCAR-8): 9290 nM (inactive)
- GI50 (SK-MEL-5): 5060 nM (inactive)
- GI50 (SF-295): 9750 nM (inactive)
- GI50 (U-251): 7570 nM (inactive)
- GI50 (786-0): 10200 nM (inactive)
- GI50 (SR): 1210 nM (inactive)
- GI50 (A549): 13900 nM (inactive)
- GI50 (SK-MEL-28): 12800 nM (inactive)
- GI50 (TK-10): 10400 nM (inactive)
- GI50 (NCI-H522): 10100 nM (inactive)
- GI50 (SN12C): 8470 nM (inactive)
- GI50 (PC-3): 6980 nM (inactive)
- GI50 (MDA-MB-435): 6920 nM (inactive)
- GI50 (M14): 7030 nM (inactive)
- GI50 (UACC-257): 5180 nM (inactive)
- GI50 (DU-145): 14500 nM (inactive)
- GI50 (OVCAR-3): 7910 nM (inactive)
- GI50 (HOP-62): 11000 nM (inactive)
- GI50 (SF-539): 5240 nM (inactive)
- GI50 (MCF7): 2850 nM (inactive)
- GI50 (OVCAR-5): 9660 nM (inactive)
- GI50 (SNB-19): 8220 nM (inactive)
- GI50 (UACC-62): 6930 nM (inactive)
- GI50 (SF-268): 9100 nM (inactive)
- GI50 (SK-MEL-2): 8690 nM (inactive)
- GI50 (HT-29): 7530 nM (inactive)
- GI50 (IGROV-1): 11700 nM (inactive)
- GI50 (HCT-116): 1230 nM (inactive)
- GI50 (A498): 14600 nM (inactive)
- GI50 (MDA-MB-231): 9250 nM (inactive)
- GI50 (SW-620): 3150 nM (inactive)
- GI50 (LOX IMVI): 6100 nM (inactive)
- GI50 (EKVX): 11600 nM (inactive)
- GI50 (NCI-H23): 9200 nM (inactive)
- GI50 (HOP-92): 9270 nM (inactive)
- GI50 (NCI-H226): 6250 nM (inactive)
- GI50 (MDA-N): 2380 nM (inactive)
- GI50 (UO-31): 12000 nM (inactive)
- GI50 (CAKI-1): 5280 nM (inactive)
- GI50 (T47D): 8930 nM (inactive)
- GI50 (COLO 205): 7850 nM (inactive)
- GI50 (NCI/ADR-RES): 5150 nM (inactive)
- GI50 (SNB-75): 8970 nM (inactive)
- GI50 (OVCAR-4): 9930 nM (inactive)
- GI50 (KM12): 1590 nM (inactive)
- GI50 (Hs-578T): 18600 nM (inactive)
- GI50 (HL-60): 2440 nM (inactive)
- GI50 (MOLT-4): 1440 nM (inactive)
- GI50 (NCI-H460): 9310 nM (inactive)
- GI50 (ACHN): 8910 nM (inactive)
- GI50 (SK-OV-3): 19000 nM (inactive)
- GI50 (BT-549): 9420 nM (inactive)
- GI50 (HCT-15): 4210 nM
- GI50 (Malme-3M): 11600 nM (inactive)

SMILES: COc1ccc(C[C@@H]2OC3(C=CC(=O)CC3Sc3ccccc3)O[C@H]2Cc2ccc(OC)cc2)cc1 (stereo partly specified)
- GI50 (CCRF-CEM): 216 nM (active)
- GI50 (K562): 1900 nM (inactive)
- GI50 (RXF 393): 107 nM (active)
- GI50 (OVCAR-8): 290 nM (active)
- GI50 (SK-MEL-5): 1370 nM (inactive)
- GI50 (SF-295): 1910 nM (inactive)
- GI50 (U-251): 1420 nM (inactive)
- GI50 (786-0): 151 nM (active)
- GI50 (SR): 187 nM (active)
- GI50 (A549): 3230 nM (inactive)
- GI50 (SK-MEL-28): 1860 nM (inactive)
- GI50 (TK-10): 1670 nM (inactive)
- GI50 (SN12C): 1610 nM (inactive)
- GI50 (PC-3): 1720 nM (inactive)
- GI50 (MDA-MB-435): 1900 nM (inactive)
- GI50 (M14): 1160 nM (inactive)
- GI50 (UACC-257): 1470 nM (inactive)
- GI50 (DU-145): 2230 nM (inactive)
- GI50 (OVCAR-3): 1640 nM (inactive)
- GI50 (HOP-62): 432 nM (active)
- GI50 (SF-539): 1640 nM (inactive)
- GI50 (MCF7): 388 nM (active)
- GI50 (OVCAR-5): 1140 nM (inactive)
- GI50 (SNB-19): 2610 nM (inactive)
- GI50 (UACC-62): 2150 nM (inactive)
- GI50 (SF-268): 335 nM (active)
- GI50 (SK-MEL-2): 1530 nM (inactive)
- GI50 (HT-29): 1790 nM (inactive)
- GI50 (IGROV-1): 904 nM (active)
- GI50 (A498): 4080 nM (inactive)
- GI50 (MDA-MB-231): 2500 nM (inactive)
- GI50 (SW-620): 303 nM (active)
- GI50 (LOX IMVI): 458 nM (active)
- GI50 (NCI-H23): 1710 nM (inactive)
- GI50 (HOP-92): 1140 nM (inactive)
- GI50 (NCI-H226): 1530 nM (inactive)
- GI50 (MDA-N): 1520 nM (inactive)
- GI50 (UO-31): 1090 nM (active)
- GI50 (CAKI-1): 2050 nM (inactive)
- GI50 (T47D): 813 nM (active)
- GI50 (COLO 205): 1850 nM (inactive)
- GI50 (NCI/ADR-RES): 1480 nM (inactive)
- GI50 (SNB-75): 1690 nM (inactive)
- GI50 (OVCAR-4): 1600 nM (inactive)
- GI50 (KM12): 2110 nM (inactive)
- GI50 (Hs-578T): 1410 nM (inactive)
- GI50 (HL-60): 1120 nM (active)
- GI50 (RPMI-8226): 310 nM (active)
- GI50 (MOLT-4): 282 nM (active)
- GI50 (NCI-H460): 3010 nM (inactive)
- GI50 (ACHN): 1360 nM (inactive)
- GI50 (SK-OV-3): 3150 nM (inactive)
- GI50 (BT-549): 223 nM (active)
- GI50 (HCT-15): 993 nM
- GI50 (Malme-3M): 1850 nM (inactive)
